pEC50: −log10 of the molar value.
Target: T1, hFXR (Homo sapiens, UniProt Q96RI1)
T1 construct: expressed in transfected cells; host or cells: CV-1 cells
T1 sequence (Q96RI1 1-486): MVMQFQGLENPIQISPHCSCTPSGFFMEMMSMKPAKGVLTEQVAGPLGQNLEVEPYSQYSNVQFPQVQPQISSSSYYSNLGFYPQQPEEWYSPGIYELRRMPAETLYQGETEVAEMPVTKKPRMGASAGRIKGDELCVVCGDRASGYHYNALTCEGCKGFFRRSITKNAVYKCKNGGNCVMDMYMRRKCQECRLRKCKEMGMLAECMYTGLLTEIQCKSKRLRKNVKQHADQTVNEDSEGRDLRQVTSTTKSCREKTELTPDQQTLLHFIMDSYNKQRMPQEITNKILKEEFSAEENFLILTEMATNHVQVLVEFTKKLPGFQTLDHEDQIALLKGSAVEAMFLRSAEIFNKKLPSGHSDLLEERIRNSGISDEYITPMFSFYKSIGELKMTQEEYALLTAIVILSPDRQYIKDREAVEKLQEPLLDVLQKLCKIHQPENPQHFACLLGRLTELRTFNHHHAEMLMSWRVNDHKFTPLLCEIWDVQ
T1 sequence (P19793 1-462 partner): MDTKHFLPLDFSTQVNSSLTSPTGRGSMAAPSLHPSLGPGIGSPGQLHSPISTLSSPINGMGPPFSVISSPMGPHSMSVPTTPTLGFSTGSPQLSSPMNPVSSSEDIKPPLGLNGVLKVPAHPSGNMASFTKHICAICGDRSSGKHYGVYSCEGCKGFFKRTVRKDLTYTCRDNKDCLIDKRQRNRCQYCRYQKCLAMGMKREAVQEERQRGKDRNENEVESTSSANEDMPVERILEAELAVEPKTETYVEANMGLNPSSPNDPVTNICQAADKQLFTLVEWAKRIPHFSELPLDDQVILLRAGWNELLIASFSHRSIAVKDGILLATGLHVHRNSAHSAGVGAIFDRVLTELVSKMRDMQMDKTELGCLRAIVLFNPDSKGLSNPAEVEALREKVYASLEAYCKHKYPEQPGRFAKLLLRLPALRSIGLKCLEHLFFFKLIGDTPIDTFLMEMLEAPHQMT
Assay: In Vitro FXR Assay (TK): TK-ECRE-luc reporter in transfected CV-1 cells
Type: cell-based
Settings: 18 hrs incubation, luminescence
In short: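 Transactivation is scored as luminescence in CV-1 cell lysates. The cells, co-transfected with hFXR/hRXR and a TK-ECRE-luc reporter, are exposed to DMSO-diluted compounds for 18 h.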

| SMILES | pEC50 |
| --- | --- |
| COc1ccc(C23CCC(CN(c4cc(-n5nnc(C(C)C)n5)ccn4)C(=O)[C@H]4CC[C@H](OC(=O)N5CC(O)C5)CC4)(CC2)CC3)cc1C [Compound 26.17, 4-((4-(5-Isopropyl-2H-tetrazol-2-yl)pyridin-2-yl)((4-(4-methoxy-3-methylphenyl)bicyclo[2.2.2]octan-1-yl)methyl)carbamoyl)cyclohexyl trans-3-hydroxyazetidine-1-carboxylate] | 5.00 to 6.00 |
| COc1ccc(C23CCC(CN(c4cc(-c5cnn(C(C)C)c5)ccn4)C(=O)[C@H]4CC[C@H](OC(=O)N5CC(OC)C5)CC4)(CC2)CC3)cc1C [Compound 4.47, 4-((4-(1-Isopropyl-1H-pyrazol-4-yl)pyridin-2-yl) ((4-(4-methoxy-3-methylphenyl)bicyclo [2.2.2]octan-1-yl)methyl)carbamoyl)(trans-cyclohexyl) 3-methoxyazetidine-1-carboxylate] | ≥ 7.30 |
| COc1ccc(C23CCC(CN(c4cc(-c5coc(C(C)C)n5)ccn4)C(=O)[C@H]4CC[C@H](OC(=O)N5CC(OCCO)C5)CC4)(CC2)CC3)cc1C [Compound 23.05, 4-((4-(2-Isopropyloxazol-4-yl)2-yl)((4-(4-methoxy-3-methylphenyl)bicyclo[2.2.2]octan-1-yl)methyl)carbamoyl)(trans-cyclohexyl) 3-(2-hydroxyethoxy)azetidine-1-carboxylatepyridin-] | ≥ 7.30 |
| CCC1CN(C(=O)O[C@H]2CC[C@H](C(=O)N(CC34CCC(c5ccc(OC)c(C)c5)(CC3)CC4)c3cc(-c4cnn(C(C)C)c4)ccn3)CC2)C1 [Compound 4.54, 4-((4-(1-Isopropyl-1H-pyrazol-4-yl)pyridin-2-yl) ((4-(4-methoxy-3-methylphenyl)bicyclo [2.2.2]octan-1-yl)methyl)carbamoyl)cyclohexyl trans-3-ethylazetidine-1-carboxylate] | ≥ 7.30 |
| COc1ccc([C@H]2CC[C@H](CN(c3cc(-c4coc(C(C)C)n4)ccn3)C(=O)[C@H]3CC[C@H](OC(=O)NC4COC4)CC3)CC2)cc1C [Compound 2.52, trans-4-((4-(2-Isopropyloxazol-4-yl)pyridin-2-yl)(((trans)-4-(4-methoxy-3-methylphenyl)cyclohexyl)methyl)carbamoyl)cyclohexyl oxetan-3-ylcarbamate] | ≥ 7.30 |
| COc1ccc([C@H]2CC[C@H](CN(c3cc(-c4cnn(C(C)C)c4)ccn3)C(=O)[C@H]3CC[C@H](OC(=O)N4CC(N(C)C)C4)CC3)CC2)cc1C [Compound 2.13, trans-4-((4-(1-Isopropyl-1H-pyrazol-4-yl)pyridin-2-yl)(((trans)-4-(4-methoxy-3-methylphenyl)cyclohexyl)methyl)carbamoyl) cyclohexyl 3-(dimethylamino)azetidine-1-carboxylate] | ≥ 7.30 |
| COc1ncc([C@H]2CC[C@H](CN(c3cc(-c4cnn(C(C)C)c4)ccn3)C(=O)[C@H]3CC[C@H](OC(=O)N4CC(N(C)C)C4)CC3)CC2)cc1Cl [Compound 1.08, trans-4-((((trans)-4-(5-Chloro-6-methoxypyridin-3-yl)cyclohexyl)methyl)(4-(1-isopropyl-1H-pyrazol-4-yl)pyridin-2-yl)carbamoyl)cyclohexyl 3-(dimethylamino)azetidine-1-carboxylate] | ≥ 7.30 |
| COc1ccc([C@H]2CC[C@H](CN(c3cccc(-c4cnn(C5CC5)c4)c3)C(=O)[C@H]3CC[C@H](C(C)O)CC3)CC2)cc1C (stereo partly drawn) [Compound 21, trans-N-(3-(1-Cyclopropyl-1H-pyrazol-4-yl)phenyl)-4-(1-hydroxyethyl)-N-((trans-4-(4-methoxy-3-methylphenyl)cyclohexyl)methyl)cyclohexanecarboxamide] | ≥ 7.30 |
| Cc1ccc(C23CCC(CN(c4cc(-c5cnn(C(C)C)c5)ccn4)C(=O)[C@H]4CC[C@H](OC(=O)N5CC(O)C5)CC4)(CC2)CC3)cc1C [Compound 26.09, 4-(((4-(3,4-Dimethylphenyl)bicyclo[2.2.2]octan-1-yl)methyl)(4-(1-isopropyl-1H-pyrazol-4-yl)pyridin-2-yl)carbamoyl)cyclohexyl trans-3-hydroxyazetidine-1-carboxylate] | ≥ 7.30 |
| CCc1ncc(-c2ccnc(N(C[C@H]3CC[C@H](c4ccc(OC)c(C)c4)CC3)C(=O)[C@H]3CC[C@H](OC(=O)N4CC(O)C4)CC3)c2)s1 [Compound 2.42, trans-4-((4-(2-Ethylthiazol-5-yl)pyridin-2-yl)((trans-4-(4-methoxy-3-methylphenyl)cyclohexyl)methyl)carbamoyl)cyclohexyl 3-hydroxyazetidine-1-carboxylate] | ≥ 7.30 |
| COc1ccc(C23CCC(CN(c4cc(-c5cnn(C6(C)CCC6)c5)ccn4)C(=O)[C@H]4CC[C@H](OC(=O)NCCO)CC4)(CC2)CC3)cc1C [Compound 25.16, 4-(((4-(4-Methoxy-3-methylphenyl)bicyclo[2.2.2]octan-1-yl)methyl)(4-(1-(1-methylcyclobutyl)-1H-pyrazol-4-yl)pyridin-2-yl)carbamoyl)(trans-cyclohexyl)(2-hydroxyethyl)carbamate] | ≥ 7.30 |
| CCOC(=O)NC[C@H]1CC[C@H](C(=O)N(C[C@H]2CC[C@H](c3ccc(OC)c(C)c3)CC2)c2cccc(-c3cnn(C(C)C)c3)c2)CC1 [Compound 12.03, Ethyl (((trans)-4-((3-(1-isopropyl-1H-pyrazol-4-yl)phenyl)(((trans)-4-(4-methoxy-3-methylphenyl)cyclohexyl)methyl)carbamoyl)cyclohexyl)methyl)car-bamate] | 6.00 to 7.30 |
| COc1ccc(C23CCC(CN(c4cc(-c5cnn(C(C)C)c5)ncn4)C(=O)[C@H]4CC[C@H](OC(=O)NCCCO)CC4)(CC2)CC3)cc1C [Compound 23.19, 4-((6-(1-Isopropyl-1H-pyrazol-4-yl)pyrimidin-4-yl)((4-(4-methoxy-3-methylphenyl)bi-cyclo[2.2.2]octan-1-yl)methyl)carbamoyl)(trans-cyclohexyl) (3-hydroxypropyl)carbamate] | ≥ 7.30 |
| COc1ccc(C23CCC(CN(c4cc(-c5noc(C(C)C)n5)ccn4)C(=O)[C@H]4CC[C@H](OC(=O)N5CC(O)C5)CC4)(CC2)CC3)cc1C [Compound 26.14, 4-((4-(5-Isopropyl-1,2,4-oxadiazol-3-yl)pyridin-2-yl)((4-(4-methoxy-3-methylphenyl)bicyclo[2.2.2]octan-1-yl)methyl)carbamoyl)cyclohexyl trans-3-hydroxyazetidine-1-carboxylate] | ≥ 7.30 |
| COc1ccc(C23CCC(CN(c4cc(-c5cnn(C(C)C)c5)c(F)cn4)C(=O)[C@H]4CC[C@H](OC(=O)N5CC(C#N)C5)CC4)(CC2)CC3)cc1C [Compound 25.12, 4-((5-Fluoro-4-(1-isopropyl-1H-pyrazol-4-yl)pyridin-2-yl)((4-(4-methoxy-3-methylphenyl)bicyclo[2.2.2]octan-1-yl)methyl)carbamoyl)cyclohexyl trans-3-cyanoazetidine-1-carboxylate] | ≥ 7.30 |
| COc1ccc(C23CCC(CN(c4cc(-c5coc(C(C)C)n5)ccn4)C(=O)[C@H]4CC[C@H](OC(=O)N5CC(CO)C5)CC4)(CC2)CC3)cc1C [Compound 23.01, 4-((4-(2-Isopropyloxazol-4-yl)pyridin-2-yl)((4-(4-methoxy-3-methylphenyl)bicyclo[2.2.2]octan-1-yl)methyl)carbamoyl)(trans-cyclohexyl) 3-(hydroxymethyl)azetidine-1-carboxylate] | ≥ 7.30 |
| COc1ccc(C23CCC(CN(c4cc(-c5cnn(C6CCS(=O)(=O)CC6)c5)ccn4)C(=O)[C@H]4CC[C@H](OC(=O)N5CC(O)C5)CC4)(CC2)CC3)cc1C [Compound 26.23, 4-((4-(1-(1,1-Dioxidotetrahydro-2H-thiopyran-4-yl)-1H-pyrazol-4-yl)pyridin-2-yl)((4-(4-methoxy-3-methylphenyl)bicyclo[2.2.2]octan-1-yl)methyl)carbamoyl)cyclohexyl trans-3-hydroxyazetidine-1-carboxylate] | 5.00 to 6.00 |
| CC(C)c1ccc(C23CCC(CN(c4cc(-c5cnn(C(C)C)c5)ccn4)C(=O)[C@H]4CC[C@H](OC(=O)N5CC(O)C5)CC4)(CC2)CC3)cc1 [Compound 26.10, 4-((4-(1-Isopropyl-1H-pyrazol-4-yl)pyridin-2-yl)((4-(4-isopropylphenyl)bicyclo[2.2.2]octan-1-yl)methyl)carbamoyl)cyclohexyl trans-3-hydroxyazetidine-1-carboxylate] | ≥ 7.30 |
| COc1ccc(C23CCC(CN(c4cccc(-n5cnc(C6CC6)c5)c4)C(=O)[C@H]4CC[C@H](OC(=O)N5CC(O)C5)CC4)(CC2)CC3)cc1C [Compound 4.58, 4-((3-(4-Cyclopropyl-1H-imidazol-1-yl)phenyl) ((4-(4-methoxy-3-methylphenyl)bicyclo [2.2.2]octan-1-yl)methyl)carbamoyl)cyclohexyl trans-3-hydroxyazetidine-1-carboxylate] | ≥ 7.30 |
